# Data from patent publication US20260207624A1, “COADMINISTRATION OF ESTROGEN WITH ESTROGEN RECEPTOR MODULATOR OR DEGRADER OR ER TARGETED PROTAC FOR THE TREATMENT OF ESTROGEN RESPONSIVE CANCERS” (Duke University, priority 2022, published 2026).
# Entries after “also recorded” stand apart in the source; their conditions may differ.
# How the values were obtained:
# [1] = system: BPD6 melanoma cells; assay: BPD6 melanoma tumor growth in ovariectomized mice receiving placebo or E2; type: in vivo, mouse; details: BPD6 tumors
# Experimental: (§1) Prior to implantation into animals, BPD6, E0771, and A7C11 cells were cultured in DMEM media supplemented with 8% fetal bovine serum, non-essential amino acids and sodium pyruvate. Cells were trypsinized and injected in phosphate buffered saline.
# (§2) For all experiments, mice were ovariectomized under anesthesia at 7 weeks of age and were provided placebo or estrogen (2.72 mcg/mL) treatment in drinking water throughout the remainder of the experiment. 7 to 10 days after surgery 0.5×10^6 BPD6melanoma cells or E0771 (0.2×10^6) or A7C 11 (0.4×10^5) mammary cancer cells per mouse were injected subcutaneously (BPD6) or orthotopically (A7C11 or E0771) into the axial mammary gland. Tumor growth was monitored by caliper measurement at least 3× weekly and was calculated as L×W2×0.5. For those mice receiving treatment with SERDs, mice were randomized to treatment 2 days after tumor implantation. 3574 (camizestrant) and 3964 were administered PO QD (by mouth every day) formulated in 5% DMSO/20% hydroxypropyl-b-cyclodextrin. Fulvestrant was administered SC Q5D in 10% DMSO/95% corn oil.
# (§3) At the conclusion of tumor measurement (approximately 2 weeks or when tumor reached 1.5-2 cm^3 volume), mice were euthanized by CO2 exposure followed by decapitation. Uteri were removed at necropsy and weighed as a measure of estrogen stimulation.
# (§4) To further explore the role of brain-expressed ER in tumor growth in the periphery, 2 SERDs were used with unique pharmacokinetics. […] ER-negative BPD6 melanoma cells were implanted into ovariectomized mice receiving either placebo or estradiol (E2) treatment in drinking water. After 48 hours, mice were randomized to receive vehicle (veh) or selective estrogen receptor degrader 3574 (10 mg/kg po qd; by mouth every day). Average tumor volume +/−SEM at each day of measurement was determined. Significance (p<0.05) was determined by 2-way ANOVA followed by Tukey's multiple comparison test. […] Treatment with anti-estrogens reversed this estradiol stimulation of tumor growth. E2 treated groups are included FIGS. 3A-3B.
# To further explore the relationship between brain exposure to SERDs and tumor response, a second melanoma experiment was conducted in which BPD6 tumors were implanted into ovariectomized mice receiving vehicle or estradiol treatment. These groups were further subdivided to receive vehicle or treatment with 25, 50, or 100 mg/kg fulvestrant.
# [2] = system: uterus; assay: Uterine wet weight at necropsy as measure of estrogen stimulation; type: in vivo, mouse
# Experimental: as §2, §3, §4
# [3] = system: E0771 mammary tumors; assay: E0771 mammary tumor growth in ovariectomized mice receiving placebo or E2; type: in vivo, mouse
# Experimental: as §1, §2, §3
# Analogous to the experiment in Example 4, E0771 mammary tumors were implanted in ovariectomized mice receiving E2 or placebo treatment.
# [4] = system: BPD6 melanoma tumors; assay: BPD6 tumor growth in mice with ER ablated in macrophages (LysMCre+) or littermate controls; type: in vivo, mouse
# Experimental: FIG. 5. TUMOR GROWTH IS REPRESSED WITH ESTROGEN AND A BRAIN-EXCLUDED SERD. FIG. 5 is a graph of tumor growth for BPD6 tumors with or without ER for the various indicated drug treatments. […] An analogous experiment to that presented in FIGS. 2A-2B and FIGS. 3A-3B was conducted in mice in which ER expression in macrophages was ablated using a promoter (LysM) to drive expression of the Cre enzyme to delete this receptor specifically in this cell type in mice having a floxed allele of ER. BPD6 melanoma tumors were implanted subcutaneously into Cre+ (ER ablated in macrophage) or littermate (LM, phenotypically wild type) mice that had been ovariectomized and then assigned to placebo or E2 treatment.
# as §2
# It was previously determined that for some cancer subtypes, including melanoma, one mechanism by which estrogens modulate tumor growth is by promoting a pro-tumor anti-inflammatory M2-like phenotype in the tumor infiltrating macrophages. Using a genetic model employing Cre-Lox technology to specifically delete estrogen receptor in myeloid cells (including macrophages), it was previously determined that loss of estrogen receptor expression in this immune cell population results in the loss of estrogen modulation of tumor growth in these tumors. […] BOD6 tumors were implanted in ovariectomized ERflox/flox/LysMCre+ or ERflox/flox mice that received placebo or estradiol treatment. Mice were further randomized to receive vehicle or SERD 3574 (10 mg/kg po qd; by mouth every day). Average tumor volume +/−SEM was determined. Significance (p<0.05) was determined by 2-way ANOVA followed by Tukey's multiple comparison test.
# [5] = system: A7C11 mammary tumors; assay: A7C11 mammary tumor growth in C57BL6 mice receiving placebo or estradiol; type: in vivo, mouse; details: for effect on tumor growth, fulvestrant alone: mice lacking estrogen exposure
# Experimental: FIGS. 11a-11b. […] 2 days later mice were subdivided to receive treatment with vehicle or fulvestrant (25, 50 or 100 mg/kg sc q5d). Average tumor volume throughout treatment (FIG. 11A) and uterine weight (FIG. 11B) at necropsy are presented. Placebo and E2+Veh groups in (FIG. 11A) are common between graphs to facilitate comparison. * p<0.05, 2-way (FIG. 11A) or 1-way (FIG. 11B) ANOVA followed by Tukey multiple comparison test. […]
# as §1
# as §2, with “[…]. […]” for “oil.”
# [6] = Brain penetration of the SERDs (pharmacokinetics); details: stated as a property of the SERD, no test described
# [7] = Cre- littermate control (LM) mice of the brain-ERKO experiment, E2 in drinking water
smiles,measurement,setting,value
"C[C@]12CC[C@@H]3c4ccc(O)cc4CC[C@H]3[C@@H]1CC[C@@H]2O [E2, 17β-estradiol]",effect of E2 on tumor growth vs placebo treated control,[1]; [7],accelerated the growth of the tumors
same,increase in tumor growth as compared to placebo/vehicle treatment,"[1]; ovariectomized wild-type mice, agent alone (FIG. 2B)",3 fold
same,increase in uterine wet weight,"[2]; estrogen treatment vs placebo, BPD6 tumor bearing ovariectomized mice (FIG. 2A)",~10 fold
same,effect of E2 on tumor growth vs placebo treated control,[3]; [7],accelerated the growth of the tumors
same,tumor volume relative to placebo control,[3]; E2 treatment alone (FIG. 4A),approximately 2 fold
same,effect of E2 on tumor growth,[4]; Cre+ mice (ER ablated in macrophage),without significant effect on tumor growth
same,tumor volume as compared to the placebo control,"[4]; Cre- LM control mice, E2 treatment",2 fold
same,effect of E2 on tumor growth vs placebo treated control,[5]; [7],accelerated the growth of the tumors
same,effect on tumor growth,[5]; estradiol (2.72 mcg/mL drinking water) and vehicle co-administered,increase in A7C11 tumor growth
"C[C@@H]1Cc2c(ccc3[nH]ncc23)[C@@H](c2ccc(NC3CN(CCCF)C3)cn2)N1CC(F)(F)F [compound 3574, camizestrant]",effect on E2 induced tumor growth,"[1]; 3574 10 mg/kg po qd together with E2, 10 mg/kg","suppressed tumor growth below that observed in the placebo/vehicle treated control; also recorded: reversed E2 induced tumor growth, but in fact significantly repressed tumor growth as compared to placebo treatment alone"
same,"effect on tumor growth, SERD alone","[1]; placebo treated (no E2) mice, 3574 10 mg/kg po qd",without effect on tumor growth
same,effect on E2 stimulation of the uterus (post-mortem uterine wet weight),"[2]; E0771 tumor bearing mice, all doses of the SERD",reversed E2 stimulation of the uterus
same,effect on E2 stimulation of uterine wet weight,"[2]; SERD with E2, BPD6 tumor bearing ovariectomized mice",reversed E2 stimulation of uterine wet weight
same,"effect on uterine weight, SERD alone (ER agonist activity)","[2]; placebo together with SERD, BPD6 tumor bearing ovariectomized mice",did not affect uterine weight
same,effect on E2 stimulation of tumor growth,"[3]; E2-treated mice, 3574 (10 mg/kg)",reversed E2 stimulation of tumor growth
same,effect on tumor growth vs Cre+ mice receiving E2 alone,"[4]; Cre+ mice, 3574 10 mg/kg po qd and E2 together",significantly inhibited tumor growth
same,"effect on growth of tumors, SERD alone","[4]; placebo treated Cre+ mice, 3574 10 mg/kg po qd",did not affect the growth of tumors
same,"effect on tumor growth, SERD alone",[5]; animals lacking estrogen exposure (FIGS. 12B-12D),did not impact tumor growth
same,"effect on tumor growth, SERD together with estrogen",[5]; estradiol treated mice (FIGS. 12B-12D),further repressed tumor growth
same,brain penetration,[6],brain excluded
C[C@]12CC[C@@H]3c4ccc(O)cc4C[C@@H](CCCCCCCCC[S+]([O-])CCCC(F)(F)C(F)(F)F)[C@H]3[C@@H]1CC[C@@H]2O (stereo partly drawn) [fulvestrant],effect on E2 stimulation of tumor growth,"[1]; E2-treated mice, fulvestrant 25, 50, or 100 mg/kg",reversed E2 stimulation of tumor growth
same,"effect on tumor growth, fulvestrant alone","[1]; placebo treated mice, fulvestrant 100 mg/kg",growth similar to that of the estrogen/vehicle control; also recorded: induced tumor growth itself
same,effect on estrogen-dependent increases in uterine weight,"[2]; A7C11 tumor bearing mice, fulvestrant 25, 50, or 100 mg/kg sc q5d",similarly repressed estrogen-dependent increases in uterine weight
same,effect on estrogen induction of tumor growth,"[5]; estradiol treated mice, 25, 50, or 100 mg/kg fulvestrant",similarly inhibited estrogen induction of A7C11 tumor growth
same,"effect on tumor growth, fulvestrant alone",[5]; 25 mg/kg fulvestrant sc q5d,dose not affect A7C11 tumor growth
same,"effect on tumor growth, fulvestrant alone",[5]; 50 or 100 mg/kg fulvestrant sc q5d,tumor growth comparable to that observed for the estrogen control group
Oc1ccc2c(c1)CC[C@H](c1ccccc1)[C@@H]2c1ccc(OCCN2CCCC2)cc1 [lasofoxifene],effect on tumor growth as compared to the placebo/vehicle control group,[5]; 3 mg/kg lasofoxifene po qd co-administered with estradiol,repression of tumor growth
